Measurements from patent US20220002288A1, “MONOBACTAM COMPOUNDS AND USE THEREFOR” (priority 2018, published 2022).
Counter-ions that a name gives are not always drawn.

Tests used:
[1] = Pharmacokinetics of the compounds in mice; format: in vivo, BALB/c mice
Source text: Animals: male BALB/c mice, SPF grade, purchased from Changzhou Cavens Experimental Animal Co., Ltd.; 16-24 g, license number: SCXK (Su)2016-0010; 2 to 3 days of adaptation period were given before the experiment.
Instruments: API 4500 High Performance Liquid Chromatograph Coupled Triple Quadrupole Mass Spectrometer, and Analyst QS A01.01 Chromatography Workstation were both purchased from AB SCIEX of the United States; Milli-Q ultrapure water device was purchased from Millipore; CF16R XII desktop high-speed refrigerated centrifuge was purchased From Hitachi Company; Qilinbeier Vortex-5 oscillator was purchased from IKA Company of German; electric heating constant-temperature water bath was purchased from Changzhou Guohua Electric Appliance Co., Ltd.; electric pipette was purchased from Thermo Company of American; and microanalysis balance was purchased from Shanghai Mettler Co., Ltd.
2 mg of the test compound was weighed, added to physiological saline, vortexed for 2 min, and ultrasonicated for 3 min, to prepare a test solution with a concentration of 0.2 mg/mL for intravenous administration.
A single dose of 2 mg/kg of the test compound was administered to BALB/c mice via the tail vein, the dose volume being 0.1 mL/10 g. At 5 min, 15 min, 30 min, 1 h, 2 h, 4 h after administration, blood samples were collected from the orbital venous plexus into heparinized EP tubes (0.6 mL), which were temporarily placed on crushed ice.
The samples were centrifuged at 8000 rpm for 5 min. 15 μL of upper plasma were transferred to a 96-well plate. 150 μL of methanol:acetonitrile (v/v=1:1) (containing 20 ng/mL tolbutamide) was added to 15 μL of plasma, shaken for 3 min, and centrifuged at 4500 rpm for 5 min. 100 μL of supernatant was taken to a 2 mL deep well plate. 100 μL of diluent (pure water) was added. The samples were shaken for 3 min, and centrifuged at 4500 rpm for 5 min. 180 μL of the supernatant was transferred to the sample plate. The content of the compound in the supernatant sample was analyzed by LC-MS/MS, and various pharmacokinetic parameters were calculated with WinNonlin software.

[2] = test system: clinically isolated Acinetobacter baumannii; assay: MIC experiment of clinically sourced bacterial strains; format: cell-based; conditions: for MIC: Acinetobacter baumannii
Procedure: (§1) Compounds: the compound of Example 1 and Compound C of Comparative Example 3. Both test compounds were dissolved and diluted with DMSO, and the final concentrations were prepared as 64, 32, 16, 8, 4, 2, 1, 0.5, 0.25, 0.125, 0.0625 μg/mL in the experiment.
(§2) Bacterial strains: clinically isolated Acinetobacter baumannii, Pseudomonas aeruginosa, Klebsiella pneumoniae and Escherichia coli, all provided by HD Biosciences (Shanghai) Co., Ltd.
(§3) Medium: Trypticase soy agar (TSA) (BD BBL 211043), and Cation-adjusted Mueller Hinton broth (CAMHB) (BD BBL212322).
(§4) The experimental method was the same as that in the above Experimental Example 1.

[3] = test system: clinically isolated Escherichia coli; assay: as above; format: cell-based
Procedure: as §1, §2, §3, §4

[4] = test system: clinically isolated Klebsiella pneumoniae; assay: as above; format: cell-based; conditions: for MIC: Klebsiella pneumoniae
Procedure: as §1, §2, §3, §4

[5] = test system: clinically isolated Pseudomonas aeruginosa; assay: as above; format: cell-based
Procedure: as §1, §2, §3, §4

[6] = test system: Acinetobacter baumannii, Pseudomonas aeruginosa, and Escherichia coli; assay: In vitro antibacterial activity, summary statements over all strains of Experimental Example 1; format: cell-based; conditions: method of Experimental Example 1
Procedure: Compounds: The compounds prepared in the above examples and comparative examples. All test compounds were dissolved and diluted with DMSO, and the final concentrations were prepared as 64, 32, 16, 8, 4, 2, 1, 0.5, 0.25, 0.125, 0.0625 μg/mL in the experiment.
Bacterial strains: 6 strains of Acinetobacter baumannii (codenames: HDBAB-YK4, HDBAB-YK7, HDBAB-YK12, HDBAB-YK16, HDBAB_OXA_7, ATCC 19606), 2 strains of Pseudomonas aeruginosa (codenames: HDBPA-YK9, HDBPA)-YK15), 1 strain of Escherichia coli (codename: CLB30048), all provided by HD Biosciences (Shanghai) Co., Ltd.
The minimum inhibitory concentration (MIC) of each compound was recorded according to the guidelines of the Clinical and Laboratory Standards Institute.

[7] = mouse, male BALB/c mice, single intravenous dose 2 mg/kg, plasma

Compound: CC1(C)[C@H](NC(=O)/C(=N\O[C@@H](COc2ccc(C(=O)Nc3cn(CCCN)[n+](CC4CNC4)c3)cc2)C(=O)O)c2csc(N)n2)C(=O)N1OS(=O)(=O)[O-] [Example 1, (S)-3-((Z)-2-(((S)-2-(4-((1-(3-aminopropyl)-2-(azetidin-3-ylmethyl)-1H-pyrazol-2-ium-4-yl)carbamoyl)phenoxy)-1-carboxyethoxy)imino)-2-(2-aminothiazol-4-yl)acetylamino)-2,2-dimethyl-4-oxoazetidin-1-yl Sulfate]
- blood concentration (CO) ([1]; intravenous dose of 2 mg/kg): 11548 ng/mL
- Vd ([1]; male, BALB/c, mouse, plasma, iv, 2 mg/kg, male BALB/c mice, single intravenous dose 2 mg/kg, plasma, read-out: VSS): 0.25 L/kg
- AUC(0-inf) [1, 7]: 3180 ng·h/mL
- AUC(0-t) [1, 7]: 3140 ng·h/mL
- C0 [1, 7]: 11500 ng/mL
- clearance [1, 7]: 10.8 mL/min/kg
- half-life [1, 7]: 20.4 min
- MIC ([2]; clinical strain A0242702): ≤ 0.063 µg/mL
- MIC ([2]; clinical strain A0244122): 0.5 µg/mL
- MIC ([2]; clinical strain A0248164): 1 µg/mL
- MIC ([2]; clinical strain A0248384): 1 µg/mL
- MIC ([2]; clinical strain A0252247): ≤ 0.063 µg/mL
- MIC ([2]; clinical strain A0254384): ≤ 0.063 µg/mL
- MIC ([2]; clinical strain A0255830): 4 µg/mL
- MIC ([2]; clinical strain A0257674): ≤ 0.063 µg/mL
- MIC ([2]; clinical strain A0258522): ≤ 0.063 µg/mL
- MIC ([2]; clinical strain A0262855): ≤ 0.063 µg/mL
- MIC ([2]; clinical strain A0270386): 1 µg/mL
- MIC ([2]; clinical strain A0272260): 0.125 µg/mL
- MIC ([2]; clinical strain A0273375): 1 µg/mL
- MIC ([2]; clinical strain A0273826): 4 µg/mL
- MIC ([2]; clinical strain A0274925): 0.125 µg/mL
- MIC ([2]; clinical strain A0283307): ≤ 0.063 µg/mL
- MIC ([2]; clinical strain A0284214): ≤ 0.063 µg/mL
- MIC ([2]; clinical strain A0284295): ≤ 0.063 µg/mL
- MIC ([2]; clinical strain A0284552): 0.5 µg/mL
- MIC ([2]; clinical strain A0285002): 1 µg/mL
- MIC ([2]; clinical strain A0285050): 0.125 µg/mL
- MIC ([2]; clinical strain A0285231): 1 µg/mL
- MIC ([2]; clinical strain A0285299): ≤ 0.063 µg/mL
- MIC ([2]; clinical strain A0285369): ≤ 0.063 µg/mL
- MIC ([2]; clinical strain A0285909): 4 µg/mL
- MIC ([2]; clinical strain A0286065): 1 µg/mL
- MIC90 ([2]; clinically isolated Acinetobacter baumannii): 4 µg/mL
- MIC value relative to that of Compound C ([2]; strains A0244122, A0255830, A0273826, A0285299, A0285909): ¼
- MIC ([3]; clinical strain HDB0140): 1 µg/mL
- MIC ([3]; clinical strain HDB0918): 0.25 µg/mL
- MIC ([3]; clinical strain HDB1120): ≤ 0.063 µg/mL
- MIC ([3]; clinical strain HDB5510): 0.125 µg/mL
- MIC ([3]; clinical strain HDB8244): 0.5 µg/mL
- MIC ([4]; clinical strain Kp309): ≤ 0.063 µg/mL
- MIC ([4]; clinical strain Kp310): ≤ 0.063 µg/mL
- MIC ([4]; clinical strain Kp472): 0.125 µg/mL
- MIC ([4]; clinical strain Kp510): 0.25 µg/mL
- MIC value relative to that of Compound C ([4]; strain Kp309): ¼
- MIC ([5]; clinical strain P7): 1 µg/mL
- MIC ([5]; clinical strain P43): 0.25 µg/mL
- MIC ([5]; clinical strain P155): 1 µg/mL
- MIC ([5]; clinical strain P157): 1 µg/mL
- MIC ([5]; clinical strain P162): 1 µg/mL
- in vitro antibacterial activity (in words) [6]: excellent antibacterial activity
